Experimental data from US12084451B2, “Compositions and methods for reducing tactile dysfunction, anxiety, and social impairment” (President and Fellows of Harvard College, priority 2018, dated 2024).
pEC50: −log10 of the molar value. Like-named read-outs stand apart in the source and are kept apart here.

Legend:
Assay type in all cases: cell-based
[1] = molecular target: T1, hGABAA α1β3γ2 (Homo sapiens, UniProt P14867+P18507+P28472); test: hGABAA IonFlux HT PAM Assay, α1β3γ2; settings: for Mean Maximal Effect (% of Control): normalized to baseline peak current induced by EC20 GABA (1 μM) for 2 seconds
T1 sequence (P14867 28-456): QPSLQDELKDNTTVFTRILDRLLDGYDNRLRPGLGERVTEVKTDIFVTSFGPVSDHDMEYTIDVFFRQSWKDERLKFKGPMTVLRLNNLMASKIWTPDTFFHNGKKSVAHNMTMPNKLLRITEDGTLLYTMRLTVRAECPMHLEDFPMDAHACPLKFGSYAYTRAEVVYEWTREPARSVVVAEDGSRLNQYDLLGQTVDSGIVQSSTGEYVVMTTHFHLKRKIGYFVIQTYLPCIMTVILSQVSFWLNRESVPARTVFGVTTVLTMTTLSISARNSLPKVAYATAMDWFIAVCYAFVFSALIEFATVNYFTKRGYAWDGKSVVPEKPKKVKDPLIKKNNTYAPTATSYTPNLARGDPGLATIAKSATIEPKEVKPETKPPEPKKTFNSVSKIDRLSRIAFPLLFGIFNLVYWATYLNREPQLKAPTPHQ
T1 sequence (P28472 26-473): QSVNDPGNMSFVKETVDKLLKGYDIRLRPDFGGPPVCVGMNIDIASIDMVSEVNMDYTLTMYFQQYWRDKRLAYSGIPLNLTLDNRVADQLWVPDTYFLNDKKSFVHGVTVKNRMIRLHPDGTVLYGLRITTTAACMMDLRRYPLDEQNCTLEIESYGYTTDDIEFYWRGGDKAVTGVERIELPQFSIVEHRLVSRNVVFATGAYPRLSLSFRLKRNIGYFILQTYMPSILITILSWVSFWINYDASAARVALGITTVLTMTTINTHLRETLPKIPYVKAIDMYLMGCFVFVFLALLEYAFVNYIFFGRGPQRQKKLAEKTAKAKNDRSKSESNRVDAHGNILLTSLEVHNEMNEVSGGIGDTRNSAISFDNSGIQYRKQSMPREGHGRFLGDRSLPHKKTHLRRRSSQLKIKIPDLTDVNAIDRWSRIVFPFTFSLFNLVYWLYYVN
T1 sequence (P18507 40-475): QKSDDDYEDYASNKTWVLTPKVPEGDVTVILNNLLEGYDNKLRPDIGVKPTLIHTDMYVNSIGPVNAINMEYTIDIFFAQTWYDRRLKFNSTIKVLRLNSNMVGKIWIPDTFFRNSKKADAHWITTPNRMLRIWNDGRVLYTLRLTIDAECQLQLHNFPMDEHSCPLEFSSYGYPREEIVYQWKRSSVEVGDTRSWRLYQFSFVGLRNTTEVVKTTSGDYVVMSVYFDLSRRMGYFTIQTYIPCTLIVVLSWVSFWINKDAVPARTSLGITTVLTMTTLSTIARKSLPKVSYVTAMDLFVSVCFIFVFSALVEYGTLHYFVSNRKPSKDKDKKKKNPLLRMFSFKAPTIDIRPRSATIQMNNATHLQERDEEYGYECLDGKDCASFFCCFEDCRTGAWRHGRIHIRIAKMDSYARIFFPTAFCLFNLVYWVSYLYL
Text: (§1) Ligand-gated ion channels targeted were hGABAA α1β3γ2 and hGABAA α2β3γ2.
(§2) Electrophysiological assays conducted to profile nine (9) compounds for activities on the on channel targets listed above for Positive Allosteric Modulator (PAM) activities using the IonFlux HT electrophysiological platform.
The parameters measured are described in the Data Analysis section.
(§3) All wells included a final DMSO concentration of 0.33% including all control wells.
(§4) All recordings were obtained from a holding potential of −60 mV. The compound addition sequence that was used for all additions was the same for all assays. […] The process was repeated with the next ascending concentration of test compound (FIG. 1).
(§5) All data were first exported to an Excel compatible data file and then analyzed using Graph Pad Prism software.

[2] = molecular target: T1, hGABAA α1β3γ2; test: hGABAA α1β3γ2 IonFlux HT Agonist Assay; parameters: activation of hGABAA α1β3γ2 ion channel currents / activation: dose or concentration left out as unconfirmed
Protocol: Ligand-gated ion channel targets were hGABAA α2β3γ2 and hGABAA α1β3γ2. Electrophysiological assays conducted to profile two compounds for agonist activities on hGABAA α2β3γ2 and seven compounds for agonist activities on hGABAA α1β3γ2 using the IonFlux HT electrophysiological platform.
The parameters measured are described in the Data Analysis section. […] Note: The test compounds was applied over two (2) ‘experimental patterns’ in increasing concentrations.
The supplied compound was prepared in DMSO to concentrations that were 300× the final assay concentrations. Aliquots were taken out and diluted 300× into external buffer to give the final assay concentration. At wells included a final DMSO concentration of 0.33% including all control wets.
All recordings were obtained from a holding potential of −60 mV. The compound addition sequence that was used for all additions was the same for all assays. […] Each test concentration of compound was applied for 2 seconds followed by 60 seconds wash. The process was repeated with the next ascending concentration of test compound. The test compounds were applied over two (2) ‘experimental patterns’ in increasing concentrations (FIG. 11).
AM data were first exported to an Excel compatible data file and then analyzed using Graph Pad Prism software.

[3] = molecular target: hGABAA α2β3γ2 (Homo sapiens, UniProt P18507+P28472+P47869); test: hGABAA IonFlux HT PAM Assay, α2β3γ2; settings: for Mean Maximal Effect (% of Control): normalized to baseline peak current induced by EC20 GABA (0.8 μM) for 2 seconds
hGABAA α2β3γ2, sequence (P47869 29-451): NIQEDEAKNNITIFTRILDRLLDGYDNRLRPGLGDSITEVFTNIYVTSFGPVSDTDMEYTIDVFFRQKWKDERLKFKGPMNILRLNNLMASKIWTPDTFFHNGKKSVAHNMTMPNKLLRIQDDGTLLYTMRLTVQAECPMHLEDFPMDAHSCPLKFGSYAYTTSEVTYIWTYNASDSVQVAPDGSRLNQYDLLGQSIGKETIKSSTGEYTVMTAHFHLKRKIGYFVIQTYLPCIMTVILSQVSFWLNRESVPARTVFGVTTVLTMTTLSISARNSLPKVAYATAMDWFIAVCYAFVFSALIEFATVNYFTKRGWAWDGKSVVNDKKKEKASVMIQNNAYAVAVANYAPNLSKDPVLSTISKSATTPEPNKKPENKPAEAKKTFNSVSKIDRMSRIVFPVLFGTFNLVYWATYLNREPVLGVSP
hGABAA α2β3γ2, sequence (P28472 26-473): as the sequence (P28472 26-473) above
hGABAA α2β3γ2, sequence (P18507 40-475): as the sequence (P18507 40-475) above
Text: as §1, §2
The parameters measured are described in the Data Analysis section. […] Open circles represent data that has been excluded from the curve fitting. Where no curve fit was possible, n/c (not calculable) is listed.
as §3, §4, §5

[4] = read-out: Normalized Percentage Activation Mean
[5] = Estimated EC50, positive modulation of EC20 GABA current

Structure (SMILES): CNCCN(C)C(=O)Cc1c(-c2ccc(C)cc2)nc2ccc(C)cn12 [Compound 1]
- Mean Maximal Effect (% of Control) [1]: 282 % of Control
- pEC50 ([1]; read-out: Estimated EC50): 6.18
- activation of hGABAA α1β3γ2 ion channel currents [2]: did not activate
- pEC50 ([2]; agonist activation of channel currents, read-out: Estimated EC50): < 3.00
- activation [2, 4]: 4.98%
- activation at 0.3 µM [2, 4]: 1.64%
- activation at 1 µM [2, 4]: 1.39%
- activation at 3 µM [2, 4]: 2.34%
- activation at 10 µM [2, 4]: 6.52%
- activation at 30 µM [2, 4]: 4.78%
- activation at 100 µM [2, 4]: 6.97%
- activation at 300 µM [2, 4]: 7.15%
- Mean Maximal Effect (% of Control) [3]: 181 % of Control
- pEC50 ([3]; read-out: Estimated EC50): 5.52

Structure (SMILES): CN1CCN(C(=O)O[C@H]2c3nccnc3C(=O)N2c2ccc(Cl)cn2)CC1 [Eszopiclone]
- (%) Control mean ([1]; 0.001 μM + EC20 GABA): 105.7 % Control
- (%) Control n1 ([1]; 0.001 μM + EC20 GABA): 97.8 % Control
- (%) Control n2 ([1]; 0.001 μM + EC20 GABA): 113.5 % Control
- (%) Control mean ([1]; 0.01 μM + EC20 GABA): 140.3 % Control
- (%) Control n1 ([1]; 0.01 μM + EC20 GABA): 132.0 % Control
- (%) Control n2 ([1]; 0.01 μM + EC20 GABA): 148.7 % Control
- (%) Control mean ([1]; 0.1 μM + EC20 GABA): 252.4 % Control
- (%) Control n1 ([1]; 0.1 μM + EC20 GABA): 242.3 % Control
- (%) Control n2 ([1]; 0.1 μM + EC20 GABA): 262.5 % Control
- (%) Control mean ([1]; 1 μM + EC20 GABA): 247.6 % Control
- (%) Control n1 ([1]; 1 μM + EC20 GABA): 267.4 % Control
- (%) Control n2 ([1]; 1 μM + EC20 GABA): 227.7 % Control
- (%) Control mean ([1]; 10 μM + EC20 GABA): 252.4 % Control
- (%) Control n1 ([1]; 10 μM + EC20 GABA): 262.3 % Control
- (%) Control n2 ([1]; 10 μM + EC20 GABA): 242.5 % Control
- (%) Control mean ([1]; 100 μM + EC20 GABA): 234.7 % Control
- (%) Control n1 ([1]; 100 μM + EC20 GABA): 258.5 % Control
- (%) Control n2 ([1]; 100 μM + EC20 GABA): 210.8 % Control
- pEC50 [1, 5]: 7.92
- Mean Maximal Effect (% of Control) [1]: 252 % of Control
- pEC50 [3, 5]: 6.79
- Mean Maximal Effect (% of Control) [3]: 213 % of Control
